Values quoted from earlier work in patent US6642179B2, “Inhibition of vegetative growth” (priority 2000, dated 2003).

System: grass
Details: versus 5-acetamido-2-methyltrifluoromethanesulfonanilide

In the case of `CC(=O)Nc1cc(NS(=O)(=O)C(F)(F)F)c(C)cc1C` [5-acetamido-2,4-dimethyltrifluoromethanesulfonanilide], the “effectiveness as grass growth regulator compared with 5-acetamido-2-methyltrifluoromethanesulfonanilide” value is listed as “much more effective grass growth regulator”.
